From article doi:10.1101/2021.10.07.463234v2 (biorxiv, 2021)
Structures can show the parent of a compound that is named as a salt.

These molecules were tested against SARS-CoV-2 Mac1 (Severe acute respiratory syndrome coronavirus 2, UniProt P0DTD1) (assay: biochemical). Settings: 100 µM; inhibitor.

SMILES	%inhibition [%]
CCOc1ccc(Cc2cc([C@@H]3O[C@H](CO)[C@@H](O)[C@H](O)[C@H]3O)ccc2Cl)cc1 [Dapagliflozin propanediol monohydrate]	0
CCOC(=O)Nc1ccc(NCc2ccc(F)cc2)cc1N [Retigabine]	0
NC(=NCCCCCCN=C(N)/N=C(\N)Nc1ccc(Cl)cc1)/N=C(\N)Nc1ccc(Cl)cc1 [Chlorhexidine?2HCl]	7.76
COc1cc2c(cc1OC)C(=O)C(CC1CCN(Cc3ccccc3)CC1)C2 (stereo not shown) [Donepezil HCl]	0
CN1[C@@H]2CC[C@H]1C[C@@H](OC(=O)c1c[nH]c3ccccc13)C2 [Tropisetron HCl]	30.45

Same assay, conditions: read-out: %inhibition

SMILES	inhibition at 100 µM [%]
Cc1cn([C@@H]2C[C@@H](O)[C@H](CO)O2)c(=O)[nH]c1=O [Telbivudine]	0
C[C@]12CC[C@H](O)CC1=CC[C@@H]1[C@@H]2CC[C@]2(C)C(n3cnc4ccccc43)=CC[C@@H]12 [Galeterone]	31.2
C[C@H](Nc1ncnc2nc[nH]c12)c1cc2cccc(Cl)c2c(=O)n1-c1ccccc1 [Duvelisib (IPI-145, INK1197)]	2.52
CC(c1cc2ccccc2s1)N(O)C(N)=O (stereo not shown) [Zileuton]	0
CCc1nn(CCCN2CCN(c3cccc(Cl)c3)CC2)c(=O)n1CCOc1ccccc1 [Nefazodone hydrochloride]	14
CC1=C(C/C=C(\C)CCC[C@H](C)CCC[C@H](C)CCCC(C)C)C(=O)c2ccccc2C1=O [Vitamin K1]	19.5
COc1ccc(Cl)cc1C(=O)NCCc1ccc(S(=O)(=O)NC(=O)NC2CCCCC2)cc1 [Glyburide (Glibenclamide)]	8.25
CNC(=C[N+](=O)[O-])NCCSCc1csc(CN(C)C)n1 [Nizatidine]	46.1
CN(C)CCc1c[nH]c2ccc(Cn3cncn3)cc12 [Rizatriptan Benzoate]	0
CCOc1nc2cccc(C(=O)OCc3oc(=O)oc3C)c2n1Cc1ccc(-c2ccccc2-c2noc(=O)[nH]2)cc1 [Azilsartan Medoxomil]	9.53
OC(Cn1cncn1)(Cn1cncn1)c1ccc(F)cc1F [Fluconazole]	16.6
CCC1(c2c[nH]cn2)Cc2ccccc2C1 [Atipamezole hydrochloride]	0
CC(C)OC(=O)[C@H](C)N[P@](=O)(OC[C@H]1O[C@@H](n2ccc(=O)[nH]c2=O)[C@](C)(F)[C@@H]1O)Oc1ccccc1 [Sofosbuvir (PSI-7977, GS-7977)]	42.9
CCOC(=O)c1ncn2c1CN(C)C(=O)c1cc(F)ccc1-2 [Flumazenil]	5.44
c1ccc(-c2ccc(C(c3ccccc3)n3ccnc3)cc2)cc1 (stereo not shown) [Bifonazole]	37
O=C(c1cc(Cc2n[nH]c(=O)c3ccccc23)ccc1F)N1CCN(C(=O)C2CC2)CC1 [Olaparib (AZD2281, Ku-0059436)]	20.2
C[C@H](CCC(=O)O)[C@H]1CC[C@H]2[C@@H]3[C@@H](O)C[C@@H]4C[C@H](O)CC[C@]4(C)[C@H]3CC[C@]12C [Ursodiol]	0
COc1ccc([C@]2(C#N)CC[C@@H](C(=O)O)CC2)cc1OC1CCCC1 [Cilomilast]	1.61
Cn1cnc([N+](=O)[O-])c1Sc1ncnc2[nH]cnc12 [Azathioprine]	18.9
CC(C)(CO)[C@@H](O)C(=O)NCCC(=O)O [Calcium D-Panthotenate]	14.2
NCCCC(N)(C(=O)O)C(F)F (stereo not shown) [Eflornithine hydrochloride hydrate]	0
C[C@H]1[C@H](OC(=O)CCC(=O)O)O[C@@H]2O[C@@]3(C)CC[C@H]4[C@H](C)CC[C@@H]1[C@@]24OO3 [Artesunate]	0
CN(C)/N=N/c1[nH]cnc1C(N)=O [Dacarbazine]	26.1
Nc1ccc(S(=O)(=O)Nc2nccs2)cc1 [Sulfathiazole]	5.37
CNC(C)Cc1ccccc1OC (stereo not shown) [Methoxyphenamine Hydrochloride]	0
O=C1c2c(O)cccc2Cc2cccc(O)c21 [Dithranol]	18.7
